# Laboratory results published in patent publication US20090312408A1, “ISOFLAVAN AND ISOFLAVENE COMPOUNDS AND THEIR USE AS ANGIOGENESIS INHIBITORS” (priority 2006, published 2009).
# What was measured:
# [1] = test system: HUVEC; experiment: VEGF-induced endothelial cell proliferation, analysis by Ki67 immunostaining; type: cell-based; settings: Homo sapiens, HUVECs, VEGF 50 ng/ml, 6 hr, read-out: half-maximal concentration, inhibition of VEGF-induced proliferation of endothelial cells
# Description: (§1) Human endothelial cells from umbilical vein (HUVEC) were plated on dishes pre-coated with rat collagen type I (Becton Dickinson Biosciences) and cultured in M199 medium supplemented with 20% fetal calf serum, FCS, 50 ng/ml endothelial cell growth supplement (ECGS, Sigma), heparin […] (Sigma) and 1% penicillin-streptomycin. All media and sera for cell culture were purchased from Invitrogen and were endotoxin-free. F47 was tested for endotoxin content using the QCL1000 kit from BioWhittaker, Inc. Stock solutions of F47 were resuspended in DMSO/ethanol, 1/1 by volume, and added directly to the culture medium. Cells not receiving F47 were incubated in the corresponding volume of DMSO/ethanol.
# HUVECs (3×10^4) were grown on cover slips and serum starved in a medium containing 5% FCS for 12 hr. Cells were induced with VEGF (50 ng/ml) in the presence or absence of F47 (10 μM) for 6 hr, fixed in 3.7% paraformaldehyde and processed for indirect immunofluorescence using an anti-Ki67 antibody. Cells were counterstained with Hoechst 33342. […] Ki67 antigen is only expressed in active phases of the cell cycle, but not in G0 phase and the percentage of the Ki67-positive cells represents the proliferating population.
# One of the main angiogenic endothelial cell responses is proliferation, in which the effect of F47 was examined. […]
# [2] = test system: HUVECs; experiment: Endothelial cell survival/apoptosis, FACS analysis (sub-G1 DNA content); type: cell-based, Human; settings: serum-starved HUVECs (5% FCS), F47 10 μM, 15 hr
# Description: as §1
# For analysis by flow cytometry, HUVECs were serum starved for 15 hr in medium containing 5% FCS and treated with VEGF (50 ng/ml) in the presence or absence of F47 (10 μM for the same period of time). At the end of the incubation time, floating and adherent cells were collected in ice-cold PBS, stained with propidium iodine using the CycleTEST PLUS DNA Reagent kit (Becton Dickinson Biosciences) and processed for flow cytometric analysis using a Becton Dickinson Fluorescence Activated Cell Scanner (FACS). The percentage of cells with a sub-G1 DNA content was considered as the cell population that had undergone apoptosis. […]
# [3] = test system: Bovine Microvascular Endothelial (BME) cells; experiment: In vitro angiogenesis assay (tube formation in 3D collagen gel); type: cell-based; settings: 50 μM, pictures after 7 days
# Description: Collagen was solubilized from rat tail tendons essentially as described by Strom and Michalopoulos, Methods Enzymol 82: 544-555, 1982 and Dharmsathaphorn and Madara, Methods Enzymol. 192: 354-389, 1990. In order to prepare collagen gel, 8 volumes of a cold collagen solution from rat tail tendons (approximately 1.5 mg/ml) were quickly mixed with 1 volume of 10× minimal essential medium (MEM) without bicarbonate and 1 volume of sodium bicarbonate (11.76 mg/ml) on ice. F47 or DMSO was added at final concentration of 50 μM and the mixture was quickly dispensed into 2.00 cm^2-tissue culture wells and it was polymerized at 37° C. for 10 min (Montesano et al., J. Cell Biol. 97: 1648-1652, 1983). Bovine Microvascular Endothelial (BME) cells were seeded onto collagen gel in 500 μl of D-MEM supplemented with 10% Donkey Calf Serum (DCS), 1% glutamine and 1% penicillin-streptomycin, containing F47 (50 μM) or DMSO (control sample). The cells were left at 37° C. for 90-120 min to be attached. Following that, the medium was removed and a second layer of 200 μl of collagen mixture, containing F47 (50 μM) or DMSO, was added on the top. Again, collagen was allowed to polymerize at 37° C. for 10 min. Finally, 500 μl of medium, containing either F47 (50 μM) or DMSO, was added on the top. The ultimate layer of the medium was changed every 2 days renewing thus F47 or DMSO. Pictures were taken after 7 days. […]
# [4] = test system: BBCE cells; experiment: bFGF-induced endothelial cell proliferation, analysis by cell counting; type: cell-based; settings: 120 h, 2.5 ng/ml bFGF, cell counting on day 5 or 6, read-out: half-maximal concentration, inhibition of bFGF-induced proliferation of endothelial cells
# Description: BBCE cells were seeded (day 0) in 12-well tissue culture plates at a density of 1250 cells/cm^2 (5000 cells/ml/well) and the following day (day 1), wells received 5 μl of the compound dilutions to be tested and 2.5 ng/ml bFGF. This treatment was repeated after two days (day 3). On day 5 or 6, cells in duplicate wells were trypsinized and counted using a Coulter particle counter. Ten dilutions were tested for each compound.
# One of the main angiogenic endothelial cell responses is proliferation, in which the effect of F47 was examined. The effect of F47 on bFGF-induced endothelial cell proliferation was studied using cell counting, the results being shown in FIG. 1. […] F47 inhibited both bFGF- and VEGF-induced proliferation of endothelial cells with half-maximal concentrations of 3 and <1 μM, respectively.
# [5] = test system: A-431 tumors; experiment: A-431 murine tumor xenograft model; type: in vivo, BALB/c nude mice
# Description: To assess the in vivo antiangiogenic/antitumor activity of F47, female immunodeficient mice (5-8 week-old BALB/c nude mice, Charles River, Milan, Italy) were s.c. inoculated in the right flank with 10^7 A-431 cells in a volume of 50 μl (Morbidelli et al., Clinic Cancer Res, 2003; 9(14): 5358-69). After 9 days, when tumors reached a volume of 170 mm^3, animals were randomly assigned to 2 different experimental protocols (9-10 mice per group). Peritumor treatment with F47 (5 μg/day/mice) or vehicle started. The local peritumor treatment was performed at the dose of 5 μg/50 μl/mouse/day. The vehicle containing the same concentrations of solvents (1% ethanol+1% DMSO) was used as control. Daily treatment was performed for 10 consecutive days. Serial caliper measurements of perpendicular diameters were used to calculate tumor volume using the following formula: (shortest diameter×longest diameter×thickness of the tumor in mm). Data are reported as tumor volume in mm^3. Experiments have been performed in accordance with the guidelines of the European Economic Community for animal care and welfare (EEC Law No. 86/609) and National Ethical Committee. Animals were observed daily for signs of cytotoxicity and were sacrified by CO2 asphyxiation.
# At day 10 animals were sacrificed and each tumor was immediately frozen in liquid nitrogen. Seven-μm-thick cryostat sections were stained with hematoxylin and eosin and adjacent sections were used for immunohistochemical staining with the anti-ED-B monoclonal antibody after fixation in absolute cold acetone.
# FIG. 5 refers to the antitumor activity of F47 evaluated in nude mice inoculated with A-431 cells and treated after the onset of tumor growth (day 9 from inoculation, >150 mm^3 tumor volume). Peri-tumor treatment with F47 (5 μg/mice/day) or vehicle continued for 10 days. Data are reported as tumor volume in mm^3 (means±SEM of […]).
smiles,measurement,setting,value
"COc1cc2c(cc1O)OCC(c1ccc(O)cc1)C2 (centres unmarked) [F47, 7,4′-dihydroxy-6-methoxy-isoflavan]",IC50,[1],< 1000 nM
same,effect on VEGF-induced endothelial cell survival,[2]; VEGF 50 ng/ml,did not inhibit
same,level of apoptosis of serum-deprived HUVECs (toxic or apoptotic effects of the compound itself),[2]; no VEGF,did not further increase
same,in vitro angiogenesis (tube formation) in 3D collagen cultures,[3],strongly inhibited
same,IC50,[4],3000 nM
same,survival of mice,"[5]; day 8, peritumor 5 μg/day/mice",78%
same,presence of tumor vasculature (anti-ED-B antibody staining of B-fibronectin),"[5]; day 10, peritumor 5 μg/day, tumor sections",absent
same,tumors smaller than in control mice (tumor volume),"[5]; peritumor 5 μg/day/mice, P<0.01 vs vehicle group at day 6 and 8, 4 animals/group",approximately 50%
